Source: the supplement of paper PMC10307832

How the values were obtained:
Test in all cases: relative viability (nuclei count vs DMSO), 5 days (fraction); higher = more cells survive
IPA-3 + Trametinib = compound: C1=CC=C2C(=C1)C=CC(=C2SSC3=C(C=CC4=CC=CC=C43)O)O [IPA-3] + CC(=O)Nc1cccc(-n2c(=O)n(C3CC3)c(=O)c3c(Nc4ccc(I)cc4F)n(C)c(=O)c(C)c32)c1 [Trametinib] (partner 0.02 µM)
Outline: (§1)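 Nuclei were stained with Hoechst during a one-step fixation (final 0.05% Triton X-100, 1% formaldehyde, 1 ug/ml Hoechst) carried out 5 days after dosing, then counted on 4× images. The cells, lung cancer lines in 1536-well plates, had been dosed by pin tool the day after seeding with one drug alone or a fixed anchor-drug dose plus five library-drug doses (not always all listed) in √10 steps. Relative viability is the nuclei count in treated wells divided by that in vehicle wells, and each value is the median of duplicate plates.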

IPA-3 + Lapatinib = compound: C1=CC=C2C(=C1)C=CC(=C2SSC3=C(C=CC4=CC=CC=C43)O)O [IPA-3] + CS(=O)(=O)CCNCc1ccc(-c2ccc3ncnc(Nc4ccc(OCc5cccc(F)c5)c(Cl)c4)c3c2)o1 [Lapatinib] (partner 2 µM)
Outline: as §1

IPA-3 + Olaparib = compound: C1=CC=C2C(=C1)C=CC(=C2SSC3=C(C=CC4=CC=CC=C43)O)O [IPA-3] + O=C(c1cc(Cc2n[nH]c(=O)c3ccccc23)ccc1F)N1CCN(C(=O)C2CC2)CC1 [Olaparib] (partner 8 µM)
Outline: as §1

Doramapimod + Crizotinib = compound: Cc1ccc(-n2nc(C(C)(C)C)cc2NC(=O)Nc2ccc(OCCN3CCOCC3)c3ccccc23)cc1 [Doramapimod] + C[C@@H](Oc1cc(-c2cnn(C3CCNCC3)c2)cnc1N)c1c(Cl)ccc(F)c1Cl [Crizotinib] (partner 1 µM)
Outline: as §1

Cell Line: UMC-11
- relative viability (IPA-3 + Trametinib; first compound 0.2 µM): 0.804
- relative viability (IPA-3 + Trametinib; first compound 0.6325 µM): 0.666
- relative viability (IPA-3 + Trametinib; first compound 2 µM): 0.677
- relative viability (IPA-3 + Trametinib; first compound 6.325 µM): 0.6
- relative viability (IPA-3 + Trametinib; first compound 20 µM): 0.794
- relative viability (IPA-3 + Lapatinib; first compound 0.2 µM): 0.944
- relative viability (IPA-3 + Lapatinib; first compound 0.6325 µM): 1.1
- relative viability (IPA-3 + Lapatinib; first compound 2 µM): 0.956
- relative viability (IPA-3 + Lapatinib; first compound 6.325 µM): 0.804
- relative viability (IPA-3 + Lapatinib; first compound 20 µM): 1.06
- relative viability (IPA-3 + Olaparib; first compound 0.2 µM): 1.06
- relative viability (IPA-3 + Olaparib; first compound 0.6325 µM): 0.459
- relative viability (IPA-3 + Olaparib; first compound 2 µM): 0.338
- relative viability (IPA-3 + Olaparib; first compound 6.325 µM): 0.361
- relative viability (IPA-3 + Olaparib; first compound 20 µM): 0.384
- relative viability (Doramapimod + Crizotinib; first compound 0.02 µM): 0.58
- relative viability (Doramapimod + Crizotinib; first compound 0.06325 µM): 0.623
- relative viability (Doramapimod + Crizotinib; first compound 0.2 µM): 0.608
- relative viability (Doramapimod + Crizotinib; first compound 0.6325 µM): 0.609
- relative viability (Doramapimod + Crizotinib; first compound 2 µM): 0.567
